Measured values: publication PMC5218480 (PLoS ONE, 2017)

Test system: MV-4-11 cells
Test: Gene expression microarray analysis (Affymetrix PrimeView) and GSEA
Format: cell-based, human
Set-up: RFU PODN (11730768_x_at) / Fold change /veh PODN (11730768_x_at) / RFU LINC00158 (11744669_a_at) / Fold change /veh LINC00158 (11744669_a_at) / RFU DUSP10 (11751237_a_at) / Fold change /veh DUSP10 (11751237_a_at) / RFU ID3 (11757404_x_at) / Fold change /veh ID3 (11757404_x_at) / RFU PLEKHG5 (11737974_s_at) / Fold change /veh PLEKHG5 (11737974_s_at) / RFU LRRC4B (11730491_at) / Fold change /veh LRRC4B (11730491_at) / RFU GIMAP4 (11747438_a_at) / Fold change /veh GIMAP4 (11747438_a_at) / RFU KRT8 (11758183_x_at) / Fold change /veh KRT8 (11758183_x_at) / RFU CNN1 (11734310_a_at) / Fold change /veh CNN1 (11734310_a_at) / RFU VPS37D (11726825_at) / Fold change /veh VPS37D (11726825_at) / RFU C10orf10 (11716522_x_at) / Fold change /veh C10orf10 (11716522_x_at) / RFU KIR2DL2 /// KIR2DL4 /// KIR2DL5A /// KIR2DL5B /// KIR2DS1 /// KIR2DS2 /// KIR2DS3 /// KIR2DS4 /// KIR3DL3 /// KIR3DL3 /// KIR3DS1 (11738374_at) / Fold change /veh KIR2DL2 /// KIR2DL4 /// KIR2DL5A /// KIR2DL5B /// KIR2DS1 /// KIR2DS2 /// KIR2DS3 /// KIR2DS4 /// KIR3DL3 /// KIR3DL3 /// KIR3DS1 (11738374_at) / RFU C1QL1 (11718748_at) / Fold change /veh C1QL1 (11718748_at) / RFU TMPRSS4 (11747572_a_at) / Fold change /veh TMPRSS4 (11747572_a_at) / RFU HAMP (11756126_x_at) / Fold change /veh HAMP (11756126_x_at) / RFU RNFT2 (11725882_a_at) / Fold change /veh RNFT2 (11725882_a_at) / RFU NR4A2 (11747474_a_at) / Fold change /veh NR4A2 (11747474_a_at) / RFU ABCC12 (11746883_a_at) / Fold change /veh ABCC12 (11746883_a_at) / RFU TMEM136 (11760407_x_at) / Fold change /veh TMEM136 (11760407_x_at) / RFU CLDN22 /// WWC2 (11732394_at) / Fold change /veh CLDN22 /// WWC2 (11732394_at) / RFU HLA-DPB1 (11760878_x_at) / Fold change /veh HLA-DPB1 (11760878_x_at) / RFU SPINT1 (11716480_a_at) / Fold change /veh SPINT1 (11716480_a_at) / RFU GAP43 (11754022_s_at) / Fold change /veh GAP43 (11754022_s_at) / RFU A4GNT (11735810_at) / Fold change /veh A4GNT (11735810_at) / RFU PRB3 (11715151_x_at) / Fold change /veh PRB3 (11715151_x_at) / RFU TUBB4B (11761932_at) / Fold change /veh TUBB4B (11761932_at) / RFU CAPN14 (11732068_a_at) / Fold change /veh CAPN14 (11732068_a_at) / RFU TMCC2 (11721928_a_at) / Fold change /veh TMCC2 (11721928_a_at) / RFU IRGQ (11745062_a_at) / Fold change /veh IRGQ (11745062_a_at) / RFU FAM174B (11720279_a_at) / Fold change /veh FAM174B (11720279_a_at) / RFU TMPRSS4 (11748680_a_at) / Fold change /veh TMPRSS4 (11748680_a_at) / RFU FAM212B (11763350_a_at) / Fold change /veh FAM212B (11763350_a_at) / RFU PLEKHG5 (11743358_a_at) / Fold change /veh PLEKHG5 (11743358_a_at) / RFU ZSCAN30 (11745921_a_at) / Fold change /veh ZSCAN30 (11745921_a_at) / RFU CMKLR1 (11741424_a_at) / Fold change /veh CMKLR1 (11741424_a_at) / RFU LOC101060620 /// MAPK8IP1 (11723275_at) / Fold change /veh LOC101060620 /// MAPK8IP1 (11723275_at) / RFU SPTSSB (11747773_x_at) / Fold change /veh SPTSSB (11747773_x_at) / RFU PRSS12 (11739890_at) / Fold change /veh PRSS12 (11739890_at) / RFU BIN1 (11741810_x_at) / Fold change /veh BIN1 (11741810_x_at) / RFU WNT11 (11732464_a_at) / Fold change /veh WNT11 (11732464_a_at) / RFU C10orf10 (11716521_a_at) / Fold change /veh C10orf10 (11716521_a_at) / RFU C5orf56 (11738089_at) / Fold change /veh C5orf56 (11738089_at) / RFU CYB561 (11721691_x_at) / Fold change /veh CYB561 (11721691_x_at) / RFU ANKRD19P (11752326_a_at) / Fold change /veh ANKRD19P (11752326_a_at) / RFU OR2T12 /// OR2T33 /// OR2T8 (11738714_s_at) / Fold change /veh OR2T12 /// OR2T33 /// OR2T8 (11738714_s_at) / RFU VCAN (11748164_a_at) / Fold change /veh VCAN (11748164_a_at) / RFU JSRP1 (11732532_at) / Fold change /veh JSRP1 (11732532_at) / RFU KRTAP10-11 (11738290_x_at) / Fold change /veh KRTAP10-11 (11738290_x_at) / RFU MYO3A (11730013_a_at) / Fold change /veh MYO3A (11730013_a_at) / RFU EBF3 (11725865_a_at) / Fold change /veh EBF3 (11725865_a_at) / RFU CAMK2N1 (11719241_x_at) / Fold change /veh CAMK2N1 (11719241_x_at) / RFU C5orf56 (11738088_a_at) / Fold change /veh C5orf56 (11738088_a_at) / RFU OLFML3 (11715873_a_at) / Fold change /veh OLFML3 (11715873_a_at) / RFU LOC100653217 /// NTM (11731650_a_at) / Fold change /veh LOC100653217 /// NTM (11731650_a_at) / RFU MAPK11 (11762145_a_at) / Fold change /veh MAPK11 (11762145_a_at) / RFU FIZ1 (11724087_x_at) / Fold change /veh FIZ1 (11724087_x_at) / RFU OASL (11726364_x_at) / Fold change /veh OASL (11726364_x_at) / RFU SOX15 (11748057_x_at) / Fold change /veh SOX15 (11748057_x_at) / RFU CD79A (11719716_a_at) / Fold change /veh CD79A (11719716_a_at) / RFU HIST1H1D (11736915_at) / Fold change /veh HIST1H1D (11736915_at) / RFU CASKIN2 (11723855_a_at) / Fold change /veh CASKIN2 (11723855_a_at) / RFU LOC730098 (11760151_x_at) / Fold change /veh LOC730098 (11760151_x_at) / RFU OR4N2 (11742367_at) / Fold change /veh OR4N2 (11742367_at) / RFU PRRT2 (11749266_a_at) / Fold change /veh PRRT2 (11749266_a_at) / RFU SNX32 (11753110_a_at) / Fold change /veh SNX32 (11753110_a_at) / RFU CDHR5 (11726645_a_at) / Fold change /veh CDHR5 (11726645_a_at) / RFU RCAN1 (11760418_a_at) / Fold change /veh RCAN1 (11760418_a_at) / RFU FAM167A (11723789_a_at) / Fold change /veh FAM167A (11723789_a_at) / RFU FAM26E (11764081_at) / Fold change /veh FAM26E (11764081_at) / RFU ISYNA1 (11749810_s_at) / Fold change /veh ISYNA1 (11749810_s_at) / RFU ACY1 (11761880_at) / Fold change /veh ACY1 (11761880_at) / RFU 11764098_at / Fold change /veh 11764098_at / RFU SAMD14 (11745864_x_at) / Fold change /veh SAMD14 (11745864_x_at) / RFU NPB (11741838_a_at) / Fold change /veh NPB (11741838_a_at) / RFU TMPRSS6 (11731388_a_at) / Fold change /veh TMPRSS6 (11731388_a_at) / RFU KRTAP10-2 (11738614_at) / Fold change /veh KRTAP10-2 (11738614_at) / RFU ARHGAP8 /// PRR5-ARHGAP8 (11727945_x_at) / Fold change /veh ARHGAP8 /// PRR5-ARHGAP8 (11727945_x_at) / RFU KRTAP5-7 /// NADSYN1 (11734609_at) / Fold change /veh KRTAP5-7 /// NADSYN1 (11734609_at) / RFU RASL12 (11751679_a_at) / Fold change /veh RASL12 (11751679_a_at) / RFU CDKN2B (11736163_a_at) / Fold change /veh CDKN2B (11736163_a_at) / RFU PRF1 (11729649_at) / Fold change /veh PRF1 (11729649_at) / RFU, ZNF638 /// ZNF638-IT1 / Fold change vs veh, ZNF638 /// ZNF638-IT1 / RFU, PANK3 / Fold change vs veh, PANK3 / RFU, SH3YL1 / Fold change vs veh, SH3YL1 / RFU, ZEB2 / Fold change vs veh, ZEB2 / RFU, NRIP1 / Fold change vs veh, NRIP1 / RFU, PTTG1IP / Fold change vs veh, PTTG1IP / RFU, CAPN2 / Fold change vs veh, CAPN2 / RFU, MED14 / Fold change vs veh, MED14 / RFU, SNORA58 / Fold change vs veh, SNORA58 / RFU, C1orf63 / Fold change vs veh, C1orf63 / RFU, LRRFIP1 / Fold change vs veh, LRRFIP1 / RFU, NDUFAF7 / Fold change vs veh, NDUFAF7 / RFU, SLC12A2 / Fold change vs veh, SLC12A2 / RFU, IBTK / Fold change vs veh, IBTK / RFU, ESF1 / Fold change vs veh, ESF1 / Fold change vs veh, TMEM50B / RFU, TAOK1 / Fold change vs veh, TAOK1 / RFU, ACBD3 / Fold change vs veh, ACBD3 / RFU, TMA16 / Fold change vs veh, TMA16 / RFU, RWDD3 / Fold change vs veh, RWDD3 / RFU, BCAT1 / Fold change vs veh, BCAT1 / RFU, EDEM3 / Fold change vs veh, EDEM3 / RFU, TMEM33 / Fold change vs veh, TMEM33 / RFU, WDR75 / Fold change vs veh, WDR75 / RFU, AHCTF1 / Fold change vs veh, AHCTF1 / RFU, TFRC / Fold change vs veh, TFRC / RFU, ZDHHC17 / Fold change vs veh, ZDHHC17 / RFU, NOM1 / Fold change vs veh, NOM1 / RFU, ARL8B / Fold change vs veh, ARL8B / RFU, ZBTB11 / Fold change vs veh, ZBTB11 / RFU, TAMM41 / Fold change vs veh, TAMM41 / RFU, KIAA1704 /// LOC100996395 / Fold change vs veh, KIAA1704 /// LOC100996395 / RFU, ING1 / Fold change vs veh, ING1 / RFU, TRMT61B / Fold change vs veh, TRMT61B / RFU, FUBP3 / Fold change vs veh, FUBP3 / RFU, TP53 / Fold change vs veh, TP53 / RFU, TNKS2 / Fold change vs veh, TNKS2 / RFU, ZFP14 / Fold change vs veh, ZFP14 / RFU, ACTR2 / Fold change vs veh, ACTR2 / RFU, PPP3R1 / Fold change vs veh, PPP3R1 / RFU, PIK3R1 / Fold change vs veh, PIK3R1 / RFU, HNRNPA1 / Fold change vs veh, HNRNPA1 / RFU, RNF170 / Fold change vs veh, RNF170 / RFU, ZNF28 / Fold change vs veh, ZNF28 / RFU, RNGTT / Fold change vs veh, RNGTT / RFU, OGT / Fold change vs veh, OGT / RFU, BRD1 / Fold change vs veh, BRD1 / RFU, MARS / Fold change vs veh, MARS / RFU, ZNF655 / Fold change vs veh, ZNF655 / RFU, FAHD1 / Fold change vs veh, FAHD1 / RFU, BDP1 / Fold change vs veh, BDP1 / RFU, LRRCC1 / Fold change vs veh, LRRCC1 / RFU, ARID1A / Fold change vs veh, ARID1A / RFU, ZNF146 / Fold change vs veh, ZNF146 / RFU, ZNF330 / Fold change vs veh, ZNF330 / RFU, GPN3 / Fold change vs veh, GPN3 / RFU, C9orf123 / Fold change vs veh, C9orf123 / RFU, N4BP2L2 / Fold change vs veh, N4BP2L2 / RFU, ARFIP1 / Fold change vs veh, ARFIP1 / RFU, FAM179B / Fold change vs veh, FAM179B / RFU, BCL10 / Fold change vs veh, BCL10 / RFU, UHRF1BP1L / Fold change vs veh, UHRF1BP1L / RFU, BET1 / Fold change vs veh, BET1 / RFU, CNOT2 / Fold change vs veh, CNOT2 / RFU, ZNF268 / Fold change vs veh, ZNF268 / Fold change vs veh, ZNF507 / RFU, DGCR2 / Fold change vs veh, DGCR2 / RFU, WDSUB1 / Fold change vs veh, WDSUB1 / Fold change vs veh, HSP90B1 /// MIR3652 / RFU, ADSS / Fold change vs veh, ADSS / RFU, GK / Fold change vs veh, GK / RFU, ZNF148 / Fold change vs veh, ZNF148 / RFU, TAF9 / Fold change vs veh, TAF9 / RFU, SLC1A5 / Fold change vs veh, SLC1A5 / RFU, SLMO2 / Fold change vs veh, SLMO2 / RFU, ABCC4 / Fold change vs veh, ABCC4 / RFU, LOC101060439 /// RAP1B / Fold change vs veh, LOC101060439 /// RAP1B / RFU, RFX7 / Fold change vs veh, RFX7 / RFU, GTPBP10 / Fold change vs veh, GTPBP10 / RFU, CNEP1R1 / Fold change vs veh, CNEP1R1 / RFU, BIVM-ERCC5 /// ERCC5 / Fold change vs veh, BIVM-ERCC5 /// ERCC5 / RFU, ILF3 / Fold change vs veh, ILF3 / RFU 11762660_at / Fold change /veh 11762660_at / RFU VCAN (11757783_s_at) / Fold change /veh VCAN (11757783_s_at) / RFU DDX43 (11728927_at) / Fold change /veh DDX43 (11728927_at) / RFU KRT8 (11758188_x_at) / Fold change /veh KRT8 (11758188_x_at) / RFU NKD1 (11759106_at) / Fold change /veh NKD1 (11759106_at) / RFU SRD5A1 (11742802_a_at) / Fold change /veh SRD5A1 (11742802_a_at) / RFU TPSAB1 /// TPSB2 (11721975_s_at) / Fold change /veh TPSAB1 /// TPSB2 (11721975_s_at) / RFU GSTM3 (11746129_a_at) / Fold change /veh GSTM3 (11746129_a_at) / RFU IL23R (11737362_x_at) / Fold change /veh IL23R (11737362_x_at) / RFU TMEM51 (11727254_a_at) / Fold change /veh TMEM51 (11727254_a_at) / RFU PIWIL2 (11732686_x_at) / Fold change /veh PIWIL2 (11732686_x_at) / RFU ORM1 (11744905_x_at) / Fold change /veh ORM1 (11744905_x_at) / RFU CCDC152 (11743942_at) / Fold change /veh CCDC152 (11743942_at) / RFU ECM1 (11717891_a_at) / Fold change /veh ECM1 (11717891_a_at) / RFU IL23R (11748794_a_at) / Fold change /veh IL23R (11748794_a_at) / RFU TNFAIP8L3 (11732012_x_at) / Fold change /veh TNFAIP8L3 (11732012_x_at) / RFU MBOAT4 (11741988_at) / Fold change /veh MBOAT4 (11741988_at) / RFU 11764193_at / Fold change /veh 11764193_at / RFU TMEM53 (11763286_at) / Fold change /veh TMEM53 (11763286_at) / RFU MAGEB2 (11727129_at) / Fold change /veh MAGEB2 (11727129_at) / RFU TMEM200A (11744735_a_at) / Fold change /veh TMEM200A (11744735_a_at) / RFU CCDC152 (11751479_a_at) / Fold change /veh CCDC152 (11751479_a_at) / RFU FAM211A (11726209_a_at) / Fold change /veh FAM211A (11726209_a_at) / RFU RGS16 (11746705_a_at) / Fold change /veh RGS16 (11746705_a_at) / RFU VCAN (11755009_s_at) / Fold change /veh VCAN (11755009_s_at) / RFU RHOB (11743442_s_at) / Fold change /veh RHOB (11743442_s_at) / RFU RGS16 (11720943_a_at) / Fold change /veh RGS16 (11720943_a_at) / RFU RGS16 (11720944_at) / Fold change /veh RGS16 (11720944_at) / RFU, VPS4B / Fold change vs veh, VPS4B / RFU, CREB1 / Fold change vs veh, CREB1 / RFU, DNAJC13 / Fold change vs veh, DNAJC13 / RFU, GNAQ / Fold change vs veh, GNAQ / RFU, CDK5R1 / Fold change vs veh, CDK5R1 / RFU, ZRANB3 / Fold change vs veh, ZRANB3 / RFU, CUL4A / Fold change vs veh, CUL4A / RFU, CCNY / Fold change vs veh, CCNY / RFU, UFL1 / Fold change vs veh, UFL1 / RFU, COG3 / Fold change vs veh, COG3 / RFU, DIAPH2 / Fold change vs veh, DIAPH2 / RFU, SKA2 / Fold change vs veh, SKA2 / RFU, AFF3 / Fold change vs veh, AFF3 / RFU, LMF1 / Fold change vs veh, LMF1 / RFU, IPO11 / Fold change vs veh, IPO11 / RFU, DFFB / Fold change vs veh, DFFB / RFU, FOXP1 / Fold change vs veh, FOXP1 / RFU, CARD8 / Fold change vs veh, CARD8 / RFU, STRN3 / Fold change vs veh, STRN3 / RFU, ADK / Fold change vs veh, ADK / RFU, RASSF2 / Fold change vs veh, RASSF2 / RFU, WIPF1 / Fold change vs veh, WIPF1 / RFU, LARP1B / Fold change vs veh, LARP1B / RFU, RASA1 / Fold change vs veh, RASA1 / RFU, RB1 / Fold change vs veh, RB1 / RFU, PPFIA1 / Fold change vs veh, PPFIA1 / RFU, MAT2A / Fold change vs veh, MAT2A / RFU, CCT5 / Fold change vs veh, CCT5 / RFU, WDR92 / Fold change vs veh, WDR92 / RFU, CUX1 / Fold change vs veh, CUX1 / RFU, TTC7A / Fold change vs veh, TTC7A / RFU, TMEM135 / Fold change vs veh, TMEM135 / RFU, DEPTOR / Fold change vs veh, DEPTOR / RFU, CPM / Fold change vs veh, CPM / RFU, DNAJB6 / Fold change vs veh, DNAJB6 / RFU, CACNA2D3 / Fold change vs veh, CACNA2D3 / RFU, DTX4 / Fold change vs veh, DTX4 / RFU, TFCP2 / Fold change vs veh, TFCP2 / RFU, GMCL1 /// GMCL1P1 / Fold change vs veh, GMCL1 /// GMCL1P1 / RFU, AEBP2 / Fold change vs veh, AEBP2 / RFU, SNHG1 /// SNORD22 /// SNORD25 /// SNORD26 /// SNORD27 /// SNORD28 /// SNORD29 /// SNORD31 / Fold change vs veh, SNHG1 /// SNORD22 /// SNORD25 /// SNORD26 /// SNORD27 /// SNORD28 /// SNORD29 /// SNORD31 / Fold change (Aza/veh), C12orf56 (ProbeSet 11735607_a_at) / Fold change (ACY-1035/veh), C12orf56 (ProbeSet 11735607_a_at) / Fold change (Aza/veh), FGFR1OP (ProbeSet 11751329_s_at) / Fold change (ACY-1035/veh), FGFR1OP (ProbeSet 11751329_s_at) / Fold change (Aza/veh), VPS36 (ProbeSet 11739960_a_at) / Fold change (ACY-1035/veh), VPS36 (ProbeSet 11739960_a_at) / RFU SYPL1 (11715823_x_at) / Fold change /veh SYPL1 (11715823_x_at) / RFU IGFBP7 (11715501_s_at) / Fold change /veh IGFBP7 (11715501_s_at) / RFU REEP3 (11722064_at) / Fold change /veh REEP3 (11722064_at) / RFU IGLL1 (11728026_x_at) / Fold change /veh IGLL1 (11728026_x_at): dose or concentration left out as unconfirmed
Conditions: MV-4-11 cells, 48 hours

SMILES: Nc1ccc(-c2cccs2)cc1NC(=O)c1ccc2c(c1)cc(C1CC1)n2CCN1CCOCC1 [ACY-1035]
- RFU PLEKHG5 (11737974_s_at): 47.67 RFU
